Data as given in PubChem BioAssay (NCI).
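Cultured in 96-well plates, cells were exposed to test compound for 48 hours across five concentrations. The concentration for 50% growth inhibition is given as GI50. Definition used: TGI = concentration required for complete inhibition of growth.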

What was measured:
Test in all cases: DTP human tumour cell line panel, 48 h
[1] = tested on: 786-0 renal
[2] = tested on: ACHN renal
[3] = tested on: SF-268 CNS
[4] = tested on: UACC-62 melanoma
[5] = tested on: SNB-75 CNS
[6] = tested on: HOP-92 NSCLC
[7] = tested on: NCI-H23 lung
[8] = tested on: CAKI-1 renal
[9] = tested on: SK-MEL-28 melanoma
[10] = tested on: SW-620 colon
[11] = tested on: RXF 393 renal
[12] = tested on: SR leukemia
[13] = tested on: NCI/ADR-RES ovarian
[14] = tested on: T-47D breast
[15] = tested on: RPMI-8226 leukemia
[16] = tested on: M14 melanoma
[17] = tested on: SK-OV-3 ovarian
[18] = tested on: K-562 leukemia
[19] = tested on: COLO 205 colon
[20] = tested on: MOLT-4 leukemia
[21] = tested on: HOP-62 NSCLC
[22] = tested on: IGROV1 ovarian
[23] = tested on: U251 CNS
[24] = tested on: HL-60(TB) leukemia
[25] = tested on: CCRF-CEM leukemia
[26] = tested on: SK-MEL-2 melanoma
[27] = tested on: MALME-3M melanoma
[28] = tested on: MDA-MB-435
[29] = tested on: A549 NSCLC
[30] = tested on: OVCAR-4 ovarian
[31] = tested on: NCI-H460 lung
[32] = tested on: SK-MEL-5 melanoma
[33] = tested on: MCF7 breast
[34] = tested on: DU-145 prostate
[35] = tested on: PC-3 prostate
[36] = tested on: UACC-257 melanoma
[37] = tested on: LOX IMVI melanoma
[38] = tested on: HCC-2998 colon
[39] = tested on: KM12 colon
[40] = tested on: HCT-15 colon
[41] = tested on: BT-549 breast
[42] = tested on: NCI-H522 lung

## CCOC(=O)C1(C(=O)OCC)CCC(C(OC)OC)C(CC(=O)OC)C1 (stereo not given)
[1]
  TGI: > 10 µM
[2]
  TGI: > 10 µM
[3]
  TGI: > 10 µM
[4]
  TGI: > 10 µM
[5]
  TGI: > 10 µM
[6]
  TGI: > 10 µM
[7]
  TGI: > 10 µM
[8]
  TGI: > 10 µM
[9]
  TGI: > 10 µM
[10]
  TGI: > 10 µM
[11]
  TGI: > 10 µM
[12]
  TGI: > 10 µM
[13]
  TGI: > 10 µM
[14]
  TGI: > 10 µM
[15]
  TGI: > 10 µM
[16]
  TGI: > 10 µM
[17]
  TGI: > 10 µM
[18]
  TGI: > 10 µM
[19]
  TGI: > 10 µM
[20]
  TGI: > 10 µM
[21]
  TGI: > 10 µM
[22]
  TGI: > 10 µM
[23]
  TGI: > 10 µM
[24]
  TGI: > 10 µM
[25]
  TGI: > 10 µM
[26]
  TGI: > 10 µM
[27]
  TGI: > 10 µM
[28]
  TGI: > 10 µM
[29]
  TGI: > 10 µM
[30]
  TGI: > 10 µM
[31]
  TGI: > 10 µM
[32]
  TGI: > 10 µM
[33]
  TGI: > 10 µM

## COc1ccc(-n2nnc3c(sc4ccccc43)c2=O)cc1
[1]
  GI50: 3.61 µM
  TGI: > 100 µM
[3]
  GI50: > 100 µM
  TGI: > 100 µM
[34]
  GI50: > 100 µM
  TGI: > 100 µM
[4]
  GI50: > 100 µM
  TGI: > 100 µM
[7]
  GI50: > 100 µM
  TGI: > 100 µM
[9]
  GI50: > 100 µM
  TGI: > 100 µM
[10]
  GI50: > 100 µM
  TGI: > 100 µM
[35]
  GI50: > 100 µM
  TGI: > 100 µM
[36]
  GI50: > 100 µM
  TGI: > 100 µM
[37]
  GI50: > 100 µM
  TGI: > 100 µM
[13]
  GI50: > 100 µM
  TGI: > 100 µM
[15]
  GI50: > 100 µM
  TGI: > 100 µM
[16]
  GI50: > 100 µM
  TGI: > 100 µM
[38]
  GI50: > 100 µM
  TGI: > 100 µM
[18]
  GI50: > 100 µM
  TGI: > 100 µM
[19]
  GI50: > 100 µM
  TGI: > 100 µM
[20]
  GI50: > 100 µM
  TGI: > 100 µM
[24]
  GI50: > 100 µM
  TGI: > 100 µM
[26]
  GI50: > 100 µM
  TGI: > 100 µM
[28]
  GI50: > 100 µM
  TGI: > 100 µM
[39]
  GI50: > 100 µM
  TGI: > 100 µM
[40]
  GI50: > 100 µM
  TGI: > 100 µM
[32]
  GI50: > 100 µM
  TGI: > 100 µM
[41]
  GI50: > 100 µM
  TGI: > 100 µM
[33]
  GI50: > 100 µM
  TGI: > 100 µM
[42]
  GI50: > 100 µM
  TGI: > 100 µM
